From patent publication US20050228050A1, “Novel stable crystals of substituted phenylpropionic acid derivative and process for producing the same” (priority 2001, published 2005)

Legend:
[1] = Differential thermal analysis (DTA) and thermogravimetry (TG) of crystals; type: physicochemical
Protocol: Differential Thermal Analysis (DTA) and Thermogravimetry (TG)
The thermal stability of crystals was compared by using apparatus for thermal analysis (SII: TG/DTA6200). […] With the new type crystals, the endothermic phenomenon due to transition was seen from 131.4° C. and the endothermic peak due to melting was shown at 132.0° C.

[2] = Hygroscopicity of crystals; type: physicochemical; conditions: stated without described test

- weight change in thermogravimetry ([1]; TG/DTA6200 thermal analysis, FIG. 3 and 4): no weight change
- thermal stability of crystals ([1]; conclusion from DTA/TG comparison of new and old type crystals): thermally stable
- hygroscopicity [2]: no hygroscopicity
Structure (SMILES): CC[C@@H](Cc1ccc(OC)c(C(=O)NCc2ccc(Oc3ccc(F)cc3)cc2)c1)C(=O)O [new type crystals, (S)-2-[[3-[N-[4-[(4-fluorophenoxy)phenyl]methyl]-carbamoyl]-4-methoxyphenyl]methyl]butanoic acid]
